# Assay results taken from patent publication US20100092402A1, “TREATMENT OF RESPIRATORY DISEASE” (Mucokinetica Ltd., priority 2007, published 2010).
# Experiments:
# [1] = system: amiloride-sensitive (sodium-dependent) component of nasal PD; assay: Nasal PD measurement during perfusion of human nasal epithelium; assay type: in vivo; settings: for average percent of maximum PD change in response to 10^−5 M-amiloride: 4 experiments, before perfusion 94% and 80%
# Description: The method of measurement of nasal PD was an adaptation of that described by Standaert et al. (2004).
# Ringer/HEPES buffer solution was prepared containing 148 mM-NaCl, 4.05 mM-KCl, 1.2 mM-CaCl2, 1.2 mM-MgCl2, 2.4 mM-K2HPO4, 0.4 mM-KH2PO4, 10 mM-HEPES, and adjusted to pH 7.4. Low chloride Ringer/HEPES buffer solution was prepared by replacing NaCl with 148 mM-Na gluconate in the Ringer solution components.
# Agar electrodes were prepared with 3.7% agarose dissolved in Ringer/HEPES buffer pH 7.4. The reference electrode was placed and taped in contact with a small area on the forearm where the epidermis had been removed by gentle abrasion. A dual lumen nasal recording electrode was prepared using a lm length of soft plastic tubing 2.4 mm diameter, into which 1 mm diameter polythene tubing was inserted through the wall and along the lumen for 15 cm from one end. The 2.4 mm diameter tubing was filled with 3.7% agarose dissolved in Ringer/HEPES buffer pH 7.4. The 1 mm diameter tubing was used for perfusion of buffer solutions and drugs to the nasal epithelium. The ends of the agar electrodes were each placed in contact with a calomel half-cell in 3 M-KCl solution. Voltages were measured by connecting the calomel electrodes to a high impedance voltmeter (Keithley 617 programmable electrometer). Output from the voltmeter was recorded by connection to a Biopac MP100 data aquisition unit and PC running Acqknowledge III data acquisition software.
# Nasal PD was recorded via the recording electrode placed in contact with the nasal epithelium approximately 4 cm inside the nostril. The nasal epithelium was perfused according to the following schedule and nasal PD was recorded continuously.
# 1. Ringer/HEPES buffer was perfused at 0.5 ml/min for 5 min, and starting baseline PD was recorded.
# 2. Perfusion was then switched to low chloride Ringer/HEPES buffer pH 7.4 for 30 min during which time initial hyperpolarisation of the epithelium occurred.
# 3. The nasal epithelium was then perfused with 10^−5 M-amiloride in low chloride Ringer/HEPES buffer pH 7.4 for 10 min. Measurement of the amiloride-sensitive (sodium-dependent) component of nasal PD was then made by measuring the difference between the average PD recorded over the 2 min before perfusion with amiloride and the average PD recorded in the period 4 to 6 min after perfusion with amiloride.
# 4. Amiloride was washed away from the nasal epithelium by perfusion with low chloride Ringer/HEPES buffer pH 7.4 for 30 min.
# 5. Steps 3 and 4 were then repeated twice more.
# 6. The nasal epithelium was then perfused with 3 μM 6-amidino-2-napthyl 4-guanidinobenzoate in low chloride Ringer/HEPES buffer pH 7.4 for 60 min.
# 7. Steps 3 and 4 were then repeated a further twice, followed by either a period of administration of amiloride (3 experiments), or a final repetition of both steps 3 and 4 (1 experiment).
# Over the 5 h time course of each experiment nasal PD drifted and oscillated. […] Changes in nasal PD caused by perfusion of amiloride were calculated as the difference between the mean PD recorded in the 2 min period before perfusion with amiloride and the mean PD recorded in the plateau period 4 to 6 min after start of perfusion with amiloride. Within each experiment the change in nasal PD at each period of application of amiloride was expressed as a percentage of the maximum change observed in the experiment.
# [2] = system: prostasin; settings: rats infused i.v. for 24h; cited from earlier work
compound,measurement,setting,value
N=C(N)c1ccc2cc(OC(=O)c3ccc(N=C(N)N)cc3)ccc2c1 [6-amidino-2-napthyl 4-guanidinobenzoate],time following perfusion for which amiloride-sensitive component of nasal PD was reduced,[1]; 3.10^−6 M in low chloride Ringer/HEPES buffer pH 7.4 for 60 min,up to 80 min
same,average percent of maximum PD change in response to 10^−5 M-amiloride,[1]; 40 min after perfusion of 3.10^−6 M for 60 min,29%
same,average percent of maximum PD change in response to 10^−5 M-amiloride,[1]; 80 min after perfusion of 3.10^−6 M for 60 min,55%
same,average percent of maximum PD change in response to 10^−5 M-amiloride,[1]; immediately following 60 min perfusion of 3.10^−6 M,49%
same,levels of prostasin secreted in the urine,[2],reduced levels of prostasin
